According to ChEMBL document CHEMBL3232855, “The discovery of N-((2H-tetrazol-5-yl)methyl)-4-((R)-1-((5r,8R)-8-(tert-butyl)-3-(3,5-dichlorophenyl)-2-oxo-1,4-diazaspiro[4.5]dec-3-en-1-yl)-4,4-dimethylpentyl)benzamide (SCH 900822): a potent and selective glucagon receptor antagonist” (J Med Chem, 2014):

What was measured:
Glucagon receptor [1] = molecular target: T1, Glucagon receptor (Homo sapiens, UniProt P47871); assay: Antagonist activity at human GCGR expressed in CHO cells assessed as inhibition of glucagon-stimulated cAMP production preincubated for 30 mins followed by glucagon induction measured after 45 mins by LANCE assay; format: functional, cell-based
Glucagon receptor [2] = molecular target: T1, Glucagon receptor; assay: biochemical; format: cell-based, CHO
Description: Displacement of [125I]-glucagon from recombinant human GCGR expressed in CHO cells after 60 mins by scintillation counting analysis

Glucagon receptor [3] = molecular target: Glucagon receptor (Mus musculus, UniProt Q61606); format: cell membranes, Liver, Membrane
Description: Displacement of [125I]-glucagon from GCGR in mouse liver membranes after 60 mins by scintillation counting analysis

[4] = molecular target: Glucagon-like peptide 1 receptor (Homo sapiens, UniProt P43220); assay: Antagonist activity at human GLP-1R expressed in CHO cells assessed as inhibition of GLP-1-stimulated cAMP production preincubated for 30 mins followed by GLP-1 induction measured after 45 mins by LANCE assay; format: functional, cell-based
Glucagon-like peptide 1 receptor, sequence (P43220 whole entry): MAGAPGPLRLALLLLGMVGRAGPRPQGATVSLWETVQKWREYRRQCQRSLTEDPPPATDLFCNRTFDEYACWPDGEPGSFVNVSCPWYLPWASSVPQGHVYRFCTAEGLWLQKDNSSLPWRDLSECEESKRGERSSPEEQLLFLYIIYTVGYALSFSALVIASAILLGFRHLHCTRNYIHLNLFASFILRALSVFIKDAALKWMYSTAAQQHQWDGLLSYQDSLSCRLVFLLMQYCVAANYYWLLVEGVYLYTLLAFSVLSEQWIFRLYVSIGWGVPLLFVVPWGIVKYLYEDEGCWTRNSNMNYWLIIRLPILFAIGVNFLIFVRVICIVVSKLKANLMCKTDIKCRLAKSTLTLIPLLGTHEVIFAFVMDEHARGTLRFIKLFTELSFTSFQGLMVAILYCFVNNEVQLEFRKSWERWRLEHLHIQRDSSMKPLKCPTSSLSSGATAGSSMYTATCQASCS

Glucagon receptor (Mus musculus, UniProt Q61606), sequence (Q61606 whole entry): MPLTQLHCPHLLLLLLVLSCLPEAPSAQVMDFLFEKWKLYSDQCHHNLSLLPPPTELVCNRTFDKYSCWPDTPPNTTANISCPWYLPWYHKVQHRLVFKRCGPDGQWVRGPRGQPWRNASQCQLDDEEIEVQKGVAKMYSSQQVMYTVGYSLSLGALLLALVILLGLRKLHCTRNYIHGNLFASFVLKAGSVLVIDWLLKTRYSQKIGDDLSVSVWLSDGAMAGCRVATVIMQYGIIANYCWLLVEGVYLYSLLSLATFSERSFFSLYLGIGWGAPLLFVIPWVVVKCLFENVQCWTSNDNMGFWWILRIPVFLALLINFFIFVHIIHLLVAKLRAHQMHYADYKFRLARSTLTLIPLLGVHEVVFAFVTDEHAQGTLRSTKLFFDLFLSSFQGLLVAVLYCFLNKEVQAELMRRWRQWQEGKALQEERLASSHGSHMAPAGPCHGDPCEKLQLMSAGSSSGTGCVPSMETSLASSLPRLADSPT
T1 sequence (P47871 whole entry): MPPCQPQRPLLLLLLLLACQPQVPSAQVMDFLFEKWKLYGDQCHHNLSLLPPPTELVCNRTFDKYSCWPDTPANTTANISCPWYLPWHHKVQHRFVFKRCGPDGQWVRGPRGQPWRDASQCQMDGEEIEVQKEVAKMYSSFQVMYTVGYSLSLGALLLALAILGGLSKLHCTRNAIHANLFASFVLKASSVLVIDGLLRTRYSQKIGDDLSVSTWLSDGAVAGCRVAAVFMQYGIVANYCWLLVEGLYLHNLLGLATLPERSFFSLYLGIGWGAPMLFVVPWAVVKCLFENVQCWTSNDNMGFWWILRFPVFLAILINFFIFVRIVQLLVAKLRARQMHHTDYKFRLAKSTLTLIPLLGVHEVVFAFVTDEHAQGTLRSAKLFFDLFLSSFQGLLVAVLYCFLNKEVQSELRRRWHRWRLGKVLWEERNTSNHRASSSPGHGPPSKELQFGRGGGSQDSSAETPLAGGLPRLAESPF

C[C@H](c1ccc(C(=O)NCCC(=O)O)cc1)N1C(=O)C(c2cccc(Cl)c2F)=N[C@]12CC[C@@H](C(C)(C)C)CC2
IC50 (Glucagon receptor [1]): 630 nM | IC50 (Glucagon receptor [2]): 620 nM | IC50 (Glucagon receptor [3]): 4000 nM | IC50 [4]: > 10000 nM

CC(C)(C)CC[C@H](c1ccc(C(=O)NCc2nn[nH]n2)cc1)N1C(=O)C(c2ccc(F)c(F)c2)=N[C@]12CC[C@@H](C(C)(C)C)CC2
IC50 (Glucagon receptor [1]): 180 nM | IC50 (Glucagon receptor [2]): 13 nM | IC50 (Glucagon receptor [3]): 170 nM | IC50 [4]: > 10000 nM

C[C@H](c1ccc(C(=O)NCCC(=O)O)cc1)N1C(=O)C(c2cccc(C3CC3)c2)=N[C@]12CC[C@@H](C(C)(C)C)CC2
IC50 (Glucagon receptor [1]): 340 nM | IC50 (Glucagon receptor [2]): 56 nM | IC50 (Glucagon receptor [3]): 1700 nM | IC50 [4]: > 10000 nM

CC(C)(C)CC[C@H](c1ccc(C(=O)NCc2nn[nH]n2)cc1)N1C(=O)C(c2cccc(C(F)(F)F)c2)=N[C@]12CC[C@@H](C(C)(C)C)CC2
IC50 (Glucagon receptor [1]): 180 nM | IC50 (Glucagon receptor [2]): 13 nM | IC50 (Glucagon receptor [3]): 140 nM | IC50 [4]: > 10000 nM

C[C@@H](CC(=O)O)NC(=O)c1ccc([C@@H](CCC(C)(C)C)N2C(=O)C(c3cc(Cl)cc(Cl)c3)=N[C@]23CC[C@@H](C(C)(C)C)CC3)cc1
IC50 (Glucagon receptor [1]): > 10000 nM | IC50 [4]: > 10000 nM

C[C@H](c1ccc(C(=O)NCCC(=O)O)cc1)N1C(=O)C(c2ccccc2)=N[C@]12CC[C@@H](C(C)(C)C)CC2
IC50 (Glucagon receptor [1]): 630 nM | IC50 (Glucagon receptor [2]): 360 nM | IC50 (Glucagon receptor [3]): 5300 nM | IC50 [4]: > 10000 nM

C[C@H](c1ccc(C(=O)NC[C@H](O)C(=O)O)cc1)N1C(=O)C(c2cc(Cl)cc(Cl)c2)=N[C@]12CC[C@@H](C(C)(C)C)CC2
IC50 (Glucagon receptor [1]): > 10000 nM | IC50 (Glucagon receptor [2]): 160 nM | IC50 (Glucagon receptor [3]): 1500 nM | IC50 [4]: > 10000 nM

CC(C)[C@H]1CC[C@]2(CC1)N=C(c1cc(Cl)cc(Cl)c1)C(=O)N2[C@H](CCC(C)(C)C)c1ccc(C(=O)NCc2nn[nH]n2)cc1
IC50 (Glucagon receptor [1]): 52 nM | IC50 (Glucagon receptor [2]): 31 nM | IC50 (Glucagon receptor [3]): 200 nM | IC50 [4]: > 10000 nM

C[C@@H](NC(=O)c1ccc([C@@H](CCC(C)(C)C)N2C(=O)C(c3cc(Cl)cc(Cl)c3)=N[C@]23CC[C@@H](C(C)(C)C)CC3)cc1)c1nnn[nH]1
IC50 (Glucagon receptor [1]): 4500 nM | IC50 [4]: > 10000 nM

CC1(CC[C@H](c2ccc(C(=O)NCc3nn[nH]n3)cc2)N2C(=O)C(c3cc(Cl)cc(Cl)c3)=N[C@]23CC[C@@H](C(C)(C)C)CC3)CC1
IC50 (Glucagon receptor [1]): 100 nM | IC50 (Glucagon receptor [2]): 17 nM | IC50 (Glucagon receptor [3]): 110 nM | IC50 [4]: > 10000 nM

CC(C)(C)CC[C@H](c1ccc(C(=O)NCCCC(=O)O)cc1)N1C(=O)C(c2cc(Cl)cc(Cl)c2)=N[C@]12CC[C@@H](C(C)(C)C)CC2
IC50 (Glucagon receptor [1]): 350 nM | IC50 (Glucagon receptor [2]): 270 nM | IC50 [4]: > 10000 nM

CC(C)(C)CC[C@H](c1ccc(C(=O)NCCC(=O)O)cc1)N1C(=O)C(c2cc(Cl)cc(Cl)c2)=N[C@]12CC[C@@H](C(C)(C)C)CC2
IC50 (Glucagon receptor [1]): 48 nM | IC50 (Glucagon receptor [2]): 16 nM | IC50 (Glucagon receptor [3]): 520 nM | IC50 [4]: 2000 nM

C[C@@H](c1ccc(C(=O)NCCC(=O)O)cc1)N1C(=O)C(c2cc(Cl)cc(Cl)c2)=N[C@]12CC[C@@H](C(C)(C)C)CC2
IC50 (Glucagon receptor [1]): 5100 nM | IC50 [4]: > 10000 nM

CC(C)(C)CC[C@H](c1ccc(C(=O)NCCC2=NNNN2)cc1)N1C(=O)C(c2cc(Cl)cc(Cl)c2)=N[C@]12CC[C@@H](C(C)(C)C)CC2
IC50 (Glucagon receptor [1]): 890 nM | IC50 (Glucagon receptor [2]): 65 nM | IC50 [4]: > 10000 nM

CC(C)(C)CC[C@H](c1ccc(C(=O)NCc2nn[nH]n2)cc1)N1C(=O)C(c2cc(Cl)cc(Cl)c2)=NC1(C)C
IC50 [4]: > 10000 nM

CC(C)(C)CC[C@H](c1ccc(C(=O)NCCS(=O)(=O)O)cc1)N1C(=O)C(c2cc(Cl)cc(Cl)c2)=N[C@]12CC[C@@H](C(C)(C)C)CC2
IC50 (Glucagon receptor [1]): 8500 nM | IC50 [4]: > 10000 nM

CC(C)(C)CC[C@H](c1ccc(C(=O)NC[C@H](O)C(=O)O)cc1)N1C(=O)C(c2cc(Cl)cc(Cl)c2)=N[C@]12CC[C@@H](C(C)(C)C)CC2
IC50 (Glucagon receptor [1]): 370 nM | IC50 (Glucagon receptor [2]): 86 nM | IC50 [4]: > 10000 nM

CC(C)(C)CC[C@H](c1ccc(C(=O)NCC(=O)O)cc1)N1C(=O)C(c2cc(Cl)cc(Cl)c2)=N[C@]12CC[C@@H](C(C)(C)C)CC2
IC50 (Glucagon receptor [1]): 2700 nM | IC50 [4]: > 10000 nM

CC(C)(C)CC[C@H](c1ccc(C(=O)NCc2nn[nH]n2)cc1)N1C(=O)C(c2ncccc2C(F)(F)F)=N[C@]12CC[C@@H](C(C)(C)C)CC2
IC50 (Glucagon receptor [1]): 1600 nM | IC50 [4]: > 10000 nM

C[C@H](NC(=O)c1ccc([C@@H](CCC(C)(C)C)N2C(=O)C(c3cc(Cl)cc(Cl)c3)=N[C@]23CC[C@@H](C(C)(C)C)CC3)cc1)c1nnn[nH]1
IC50 (Glucagon receptor [1]): > 10000 nM | IC50 [4]: > 10000 nM

CC(C)(C)CC[C@H](c1ccc(C(=O)Nc2nnn[nH]2)cc1)N1C(=O)C(c2cc(Cl)cc(Cl)c2)=N[C@]12CC[C@@H](C(C)(C)C)CC2
IC50 (Glucagon receptor [1]): 850 nM | IC50 (Glucagon receptor [2]): 600 nM | IC50 [4]: 140 nM

COc1cccc(C2=N[C@]3(CC[C@@H](C(C)(C)C)CC3)N([C@H](CCC(C)(C)C)c3ccc(C(=O)NCc4nn[nH]n4)cc3)C2=O)c1
IC50 (Glucagon receptor [1]): 230 nM | IC50 (Glucagon receptor [2]): 15 nM | IC50 [4]: > 10000 nM
